{
  "source": "patent US20020103111A1",
  "about": "“Inhibitors of MAdCAM-1-mediated interactions and methods of use therefor” (Millennium Pharmaceuticals, Inc., priority 1996, published 2002)",
  "target": "T1, human MAdCAM-1 (huMAdCAM-1-Ig chimera); RPMI 8866 cells expressing α4β7 (Homo sapiens, UniProt P13612+P26010)",
  "T1 construct": "RPMI 8866 cells, a B cell lymphoma expressing α4β7; endogenous in cells; host or cells: RPMI 8866 cells (endogenous α4β7)",
  "T1 sequence (P13612 34-1032, change not shown)": "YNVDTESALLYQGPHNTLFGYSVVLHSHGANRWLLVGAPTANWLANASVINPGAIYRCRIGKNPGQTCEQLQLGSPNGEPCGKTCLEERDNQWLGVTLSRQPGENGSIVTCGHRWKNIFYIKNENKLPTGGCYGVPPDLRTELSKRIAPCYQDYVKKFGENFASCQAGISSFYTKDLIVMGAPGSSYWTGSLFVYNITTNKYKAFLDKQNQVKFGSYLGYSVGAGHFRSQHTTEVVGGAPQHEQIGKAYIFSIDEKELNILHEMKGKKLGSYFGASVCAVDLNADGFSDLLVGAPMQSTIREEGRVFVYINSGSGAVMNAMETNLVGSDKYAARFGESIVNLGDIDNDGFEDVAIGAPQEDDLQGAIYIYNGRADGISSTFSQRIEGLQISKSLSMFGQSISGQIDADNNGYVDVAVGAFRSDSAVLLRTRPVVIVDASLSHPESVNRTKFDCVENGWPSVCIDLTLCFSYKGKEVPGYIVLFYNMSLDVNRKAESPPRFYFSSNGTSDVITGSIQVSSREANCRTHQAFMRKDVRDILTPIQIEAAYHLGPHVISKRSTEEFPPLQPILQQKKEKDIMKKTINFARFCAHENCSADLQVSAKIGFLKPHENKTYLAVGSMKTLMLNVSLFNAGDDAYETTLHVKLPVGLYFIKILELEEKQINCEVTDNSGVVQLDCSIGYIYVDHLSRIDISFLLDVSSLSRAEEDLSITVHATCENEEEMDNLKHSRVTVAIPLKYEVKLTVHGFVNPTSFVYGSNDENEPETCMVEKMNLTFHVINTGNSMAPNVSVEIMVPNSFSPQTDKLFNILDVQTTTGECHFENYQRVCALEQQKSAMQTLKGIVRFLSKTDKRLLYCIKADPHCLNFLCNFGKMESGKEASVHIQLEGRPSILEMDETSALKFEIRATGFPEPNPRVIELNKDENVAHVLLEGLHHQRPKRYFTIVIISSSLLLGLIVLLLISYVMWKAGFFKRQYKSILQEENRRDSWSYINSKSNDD",
  "T1 sequence (P26010 20-798, change not shown)": "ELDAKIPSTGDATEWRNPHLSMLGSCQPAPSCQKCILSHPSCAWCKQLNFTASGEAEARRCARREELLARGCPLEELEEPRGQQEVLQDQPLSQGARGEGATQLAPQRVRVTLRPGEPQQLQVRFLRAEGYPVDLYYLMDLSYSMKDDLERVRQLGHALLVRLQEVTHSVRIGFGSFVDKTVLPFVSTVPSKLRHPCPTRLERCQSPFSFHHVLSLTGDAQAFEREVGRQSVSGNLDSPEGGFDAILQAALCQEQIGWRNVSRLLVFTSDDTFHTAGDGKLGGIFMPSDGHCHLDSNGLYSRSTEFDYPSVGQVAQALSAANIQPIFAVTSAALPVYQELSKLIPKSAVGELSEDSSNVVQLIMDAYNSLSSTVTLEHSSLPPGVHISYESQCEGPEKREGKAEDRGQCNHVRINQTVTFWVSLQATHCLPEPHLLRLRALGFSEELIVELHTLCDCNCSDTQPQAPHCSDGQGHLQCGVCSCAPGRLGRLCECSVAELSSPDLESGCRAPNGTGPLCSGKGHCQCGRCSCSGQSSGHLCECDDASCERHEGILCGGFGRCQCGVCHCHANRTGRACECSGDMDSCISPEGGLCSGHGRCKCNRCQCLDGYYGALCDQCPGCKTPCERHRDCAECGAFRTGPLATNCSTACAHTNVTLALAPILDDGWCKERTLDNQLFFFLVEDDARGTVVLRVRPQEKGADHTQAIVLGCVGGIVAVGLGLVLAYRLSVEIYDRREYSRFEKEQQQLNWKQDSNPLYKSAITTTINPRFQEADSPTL",
  "test": "huMAdCAM-1-Ig/RPMI 8866 Adhesion Assay",
  "assay_type": "cell-based",
  "description": "RPMI 8866 cells, a B cell lymphoma expressing α4β7 (a gift from D. Erle; Erle, D. J. et al., J. Immunol., 153:517-528 (1994); Shyjan et al., Journal of Immunology, 1996:2851 (1996) were fluorescently labeled (labeling protocol provided below) using BCECF (Molecular probes #B-1170). Cells were resuspended in an assay buffer consisting of Hanks Balanced Salt Solution (HBSS) supplemented with fetal calf serum (FCS) at a final concentration of 2%, HEPES, pH 7.3 at 25 mM. All reagents in this buffer were supplied from Gibco/BRL.\nAll assays were performed in 96 well strip well plates from Costar (E.I.A./R.I.A. Strip plate-8 Cat. #2581). […] The plates were incubated at 37° C. for one hour (or at 4° C. overnight) and washed once in the automatic plate washer (50 mM Tris HCl, 0.14 M NaCl and 2.0 mM MnCl2 at pH 7.2) (Bio-Tek EL 404 microplate autowasher). Wells were then blocked with PBS (phosphate buffered saline) and 10% FCS (100 μl/well) for one hour at 37° C. followed by the same wash step as described.\nCells were labeled with BCECF-AM (Molecular Probes, Cat. No. B-1170) at a concentration of 2 μl/ml to a cell suspension of 4×10^6 cells/ml in PBS. The cells were incubated in a 37° C. water bath for 30 minutes. Labeled cells were centrifuged at 700 RPM for 10 minutes, resuspended in assay buffer and the centrifugation step was repeated. The cells were resuspended at a final concentration of 2.5×10^6 cells/ml.\nFor assays, compounds were diluted as follows in a 96 well polypropylene plate. First, a stock solution of each compound was prepared by dissolving compound in 100% DMSO at 100X final concentration to be tested. 10 μl of the stock was added to 90 μl water for the first test dilution. 50 μl of the first test dilution was added to 50 μl of 10% DMSO in water for the second test dilution. 50 μl of the second test dilution was added to 50 μl of 10% DMSO in water for the third test dilution. 50 μof the third test dilution was added to 50 μl of 10% DMSO in water for the fourth test dilution, and so on, until six test dilutions were prepared.\nA stock solution of SmM positive control peptide (L783-1A) was made in 100% DMSO, and subsequently diluted in water 1:10 (10 μl of 5 mM stock plus 90 μl of water) to yield a concentration of 0.5mM. This dilution was then further diluted 1:2 with 10% DMSO (50 μl of the compound and 50 μl of 10% DMSO) for a concentration of 250 μM. These 1:2 dilutions were continued serially until six dilutions were achieved. These dilutions represent 10X stocks as shown in the assay set up below:\nThe assay was set up by adding materials to huMAdCAM-1-Ig-coated plates as follows:\n1) 130 μl/well of assay buffer\n2) 20 μl/well of diluted compounds or 10% DMSO (control) or diluted positive control peptide.\n3) 50 μl of ECECF-AM-labeled RPMI 8866 cells\nThe plates were wrapped in foil and incubated for 30 minutes at room temperature on a rotary shaker at 45 RPM.\nPlates were washed twice (50 mM Tris HCl, […] and 2.0 mM MnCl2 at pH 7.2) on the microplate autowasher plate washer set as follows:\nPlates were read in an IDEX fluoresecent plate reader set to excite at 485 nm and read at 535 nm.\nData was collected in microsoft excel in a format for automatic IC 50 determinations.",
  "key": {"[1]": {"details": "Table 6, R1-Leu-Asp-Thr, read-out: hMAdCAM IC50"}, "[2]": {"details": "Table 7, R1-Leu-Asp-Thr-R2, read-out: hMAdCAM IC50"}},
  "note": "Read-outs that look alike come from different tables or passages of the source.",
  "data": [
    {"compound": "CC(C)C[C@H](NC(=O)c1cccc(F)c1F)C(=O)N[C@@H](CC(=O)O)C(=O)N[C@H](C(N)=O)[C@@H](C)O", "note": "[Table 6 example 8]", "values": [
      {"measurement": "IC50", "setting": "[1]", "value": 2000, "unit": "nM"}
    ]},
    {"compound": "CC(C)C[C@H](NC(=O)c1cc2ccccc2cn1)C(=O)N[C@@H](CC(=O)O)C(=O)N[C@H](C(=O)NCCC1=CCCCC1)[C@@H](C)O", "note": "[Table 7 example 4]", "values": [
      {"measurement": "IC50", "setting": "[2]", "value": 640, "unit": "nM"}
    ]},
    {"compound": "CC(C)C[C@H](NC(=O)c1cc2ccccc2cn1)C(=O)N[C@@H](CC(=O)O)C(=O)N[C@H](C(=O)N1CCc2ccccc2C1)[C@@H](C)O", "note": "[Table 7 example 1]", "values": [
      {"measurement": "IC50", "setting": "[2]", "value": 780, "unit": "nM"}
    ]},
    {"compound": "CC(C)C[C@H](NC(=O)c1cccc(Cl)c1)C(=O)N[C@@H](CC(=O)O)C(=O)N[C@H](C(N)=O)[C@@H](C)O", "note": "[Table 6 example 3]", "values": [
      {"measurement": "IC50", "setting": "[1]", "value": 1400, "unit": "nM"}
    ]},
    {"compound": "CCCCCCOc1ccc(C(=O)N[C@@H](CC(C)C)C(=O)N[C@@H](CC(=O)O)C(=O)N[C@H](C(N)=O)[C@@H](C)O)cc1", "note": "[Table 6 example 1]", "values": [
      {"measurement": "IC50", "setting": "[1]", "value": 580, "unit": "nM"}
    ]},
    {"compound": "CC(C)C[C@H](NC(=O)c1cc2ccccc2cn1)C(=O)N[C@@H](CC(=O)O)C(=O)N[C@H](C(=O)NC1CC1)[C@@H](C)O", "note": "[Table 7 example 7]", "values": [
      {"measurement": "IC50", "setting": "[2]", "value": 3800, "unit": "nM"}
    ]},
    {"compound": "CC(C)C[C@H](NC(=O)c1cc2ccccc2cn1)C(=O)N[C@@H](CC(=O)O)C(=O)N[C@H](C(=O)N1CCC(=O)CC1)[C@@H](C)O", "note": "[Table 7 example 2]", "values": [
      {"measurement": "IC50", "setting": "read-out: hMAdCAM IC50, Table 7, R1-Leu-Asp-Thr-R2", "value": 940, "unit": "nM"}
    ]},
    {"compound": "CC(C)C[C@H](NC(=O)c1cc2ccccc2cn1)C(=O)N[C@@H](CC(=O)O)C(=O)N[C@H](C(=O)N1CCC(C)OC1C)[C@@H](C)O", "note": "(some centres unmarked) [Table 7 example 3]", "values": [
      {"measurement": "IC50", "setting": "[2]", "value": 970, "unit": "nM"}
    ]},
    {"compound": "CC(C)C[C@H](NC(=O)c1cc2ccccc2cn1)C(=O)N[C@@H](CC(=O)O)C(=O)N[C@H](C(=O)NC1CCCCCCC1)[C@@H](C)O", "note": "[Table 7 example 8]", "values": [
      {"measurement": "IC50", "setting": "[2]", "value": 1300, "unit": "nM"}
    ]},
    {"compound": "Cc1nc(Cl)ccc1C(=O)N[C@@H](CC(C)C)C(=O)N[C@@H](CC(=O)O)C(=O)N[C@H](C(N)=O)[C@@H](C)O", "note": "[Table 6 example 9]", "values": [
      {"measurement": "IC50", "setting": "[1]", "value": 1100, "unit": "nM"}
    ]},
    {"compound": "CC(C)C[C@H](NC(=O)c1cc2ccccc2o1)C(=O)N[C@@H](CC(=O)O)C(=O)N[C@H](C(=O)NC1CCc2ccccc21)[C@@H](C)O", "note": "(some centres unmarked) [Table 7 example 10]", "values": [
      {"measurement": "IC50", "setting": "[2]", "value": 1500, "unit": "nM"}
    ]},
    {"compound": "CC(C)C[C@H](NC(=O)c1sccc1Br)C(=O)N[C@@H](CC(=O)O)C(=O)N[C@H](C(N)=O)[C@@H](C)O", "note": "[Table 6 example 6]", "values": [
      {"measurement": "IC50", "setting": "[1]", "value": 2600, "unit": "nM"}
    ]},
    {"compound": "CC(C)C[C@H](NC(=O)c1cccc(C(F)(F)F)c1)C(=O)N[C@@H](CC(=O)O)C(=O)N[C@H](C(N)=O)[C@@H](C)O", "note": "[Table 6 example 7]", "values": [
      {"measurement": "IC50", "setting": "[1]", "value": 2800, "unit": "nM"}
    ]},
    {"compound": "Cc1cccc(CNC(=O)[C@@H](NC(=O)[C@H](CC(=O)O)NC(=O)[C@H](CC(C)C)NC(=O)c2cc3ccccc3cn2)[C@@H](C)O)c1", "note": "[Table 7 example 5]", "values": [
      {"measurement": "IC50", "setting": "[2]", "value": 810, "unit": "nM"}
    ]},
    {"compound": "CC(C)C[C@H](NC(=O)c1cc2ccccc2cn1)C(=O)N[C@@H](CC(=O)O)C(=O)N[C@H](C(=O)NCCO)[C@@H](C)O", "note": "[Table 7 example 9]", "values": [
      {"measurement": "IC50", "setting": "[2]", "value": 1500, "unit": "nM"}
    ]},
    {"compound": "CC(C)C[C@H](NC(=O)c1ccc(C(C)(C)C)cc1)C(=O)N[C@@H](CC(=O)O)C(=O)N[C@H](C(N)=O)[C@@H](C)O", "note": "[Table 6 example 4]", "values": [
      {"measurement": "IC50", "setting": "[1]", "value": 1100, "unit": "nM"}
    ]},
    {"compound": "CC(C)C[C@H](NC(=O)c1coc2ccccc2c1=O)C(=O)N[C@@H](CC(=O)O)C(=O)N[C@H](C(N)=O)[C@@H](C)O", "note": "[Table 6 example 2]", "values": [
      {"measurement": "IC50", "setting": "[1]", "value": 730, "unit": "nM"}
    ]}
  ]
}
